Test results taken from ChEMBL document CHEMBL6078724, “Discovery of the first examples of right open reading frame kinase 2 (RIOK2) molecular glue degraders” (Eur J Med Chem, 2025).
Calls of active or inactive are those of the source. The calls are words filed in the database; no cut-off is given here.

Experiments:
[1] = target: T1, E3 ubiquitin-protein ligase RNF126/Serine/threonine-protein kinase RIO2 (Homo sapiens, UniProt Q9BVS4+Q9BV68); assay: Molecular glue degradation activity at RNF126/RIOK2 in human MOLT-4 cells assessed as induction protein degradation incubated for 12 hrs by immunoblot analysis relative to control; type: cell-based
Target sequence in this assay (Q9BV68 2-311 partner limits assumed): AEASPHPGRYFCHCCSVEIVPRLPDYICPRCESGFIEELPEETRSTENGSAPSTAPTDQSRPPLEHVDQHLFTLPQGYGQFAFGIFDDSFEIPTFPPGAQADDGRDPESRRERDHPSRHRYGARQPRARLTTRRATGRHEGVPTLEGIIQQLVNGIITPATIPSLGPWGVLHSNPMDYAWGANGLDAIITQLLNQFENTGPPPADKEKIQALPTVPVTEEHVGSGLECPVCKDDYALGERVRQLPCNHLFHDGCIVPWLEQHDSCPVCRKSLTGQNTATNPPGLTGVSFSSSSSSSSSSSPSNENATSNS
Target sequence in this assay (Q9BVS4 whole entry): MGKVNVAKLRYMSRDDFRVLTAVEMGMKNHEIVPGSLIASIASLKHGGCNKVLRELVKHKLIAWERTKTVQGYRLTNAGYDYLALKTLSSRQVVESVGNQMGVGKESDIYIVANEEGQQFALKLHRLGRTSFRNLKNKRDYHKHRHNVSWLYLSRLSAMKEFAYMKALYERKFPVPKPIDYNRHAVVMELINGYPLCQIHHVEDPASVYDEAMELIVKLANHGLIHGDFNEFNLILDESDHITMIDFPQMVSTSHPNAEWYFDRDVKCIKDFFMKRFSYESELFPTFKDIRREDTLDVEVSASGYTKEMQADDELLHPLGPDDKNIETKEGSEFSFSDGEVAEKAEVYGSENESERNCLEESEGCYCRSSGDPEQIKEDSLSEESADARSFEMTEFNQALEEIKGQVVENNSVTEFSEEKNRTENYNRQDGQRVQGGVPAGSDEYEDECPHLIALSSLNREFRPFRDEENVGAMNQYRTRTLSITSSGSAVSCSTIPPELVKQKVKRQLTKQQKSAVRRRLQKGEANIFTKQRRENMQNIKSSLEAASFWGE

[2] = target: T1, E3 ubiquitin-protein ligase RNF126/Serine/threonine-protein kinase RIO2; assay: Molecular glue degradation activity at RNF126/RIOK2 in JP-2-196-treated human MOLT-4 cells assessed as induction protein degradation at 1 uM incubated for 12 hrs by immunoblot analysis; type: cell-based
Target sequence in this assay (Q9BV68 2-311 partner limits assumed): as the sequence (Q9BV68 2-311 partner limits assumed) above
Target sequence in this assay (Q9BVS4 whole entry): as the sequence (Q9BVS4 whole entry) above

[3] = target: T1, E3 ubiquitin-protein ligase RNF126/Serine/threonine-protein kinase RIO2; assay: Molecular glue degradation activity at RNF126/RIOK2 in human HL-60 cells assessed as induction protein degradation by immunoblot analysis; type: cell-based
Target sequence in this assay (Q9BVS4 whole entry): as above
Target sequence in this assay (Q9BV68 whole entry): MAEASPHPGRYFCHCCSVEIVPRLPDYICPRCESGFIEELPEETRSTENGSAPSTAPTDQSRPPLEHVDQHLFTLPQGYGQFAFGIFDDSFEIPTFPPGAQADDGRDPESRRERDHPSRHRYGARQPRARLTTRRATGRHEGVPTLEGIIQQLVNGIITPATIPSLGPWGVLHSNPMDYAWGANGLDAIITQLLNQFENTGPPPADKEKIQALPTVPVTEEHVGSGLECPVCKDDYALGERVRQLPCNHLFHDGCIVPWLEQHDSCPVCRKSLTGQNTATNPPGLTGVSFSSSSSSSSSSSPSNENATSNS

[4] = target: T1, E3 ubiquitin-protein ligase RNF126/Serine/threonine-protein kinase RIO2; assay: Molecular glue degradation activity at RNF126/RIOK2 in human OCILY3 cells assessed as induction protein degradation by immunoblot analysis; type: cell-based
Target sequence in this assay (Q9BVS4 whole entry): as the sequence (Q9BVS4 whole entry) above
Target sequence in this assay (Q9BV68 whole entry): as the sequence (Q9BV68 whole entry) above

[5] = target: T1, E3 ubiquitin-protein ligase RNF126/Serine/threonine-protein kinase RIO2; assay: Molecular glue degradation activity at RNF126/RIOK2 in human A549 cells assessed as induction protein degradation by immunoblot analysis; type: cell-based
Target sequence in this assay (Q9BVS4 whole entry): as the sequence (Q9BVS4 whole entry) above
Target sequence in this assay (Q9BV68 whole entry): as the sequence (Q9BV68 whole entry) above

[6] = target: T1, E3 ubiquitin-protein ligase RNF126/Serine/threonine-protein kinase RIO2; assay: Molecular glue degradation activity at RNF126/RIOK2 in human HL-60 cells assessed as induction protein degradation by immunoblot analysis relative to control; type: cell-based
Target sequence in this assay (Q9BV68 2-311 partner limits assumed): as the sequence (Q9BV68 2-311 partner limits assumed) above
Target sequence in this assay (Q9BVS4 whole entry): as the sequence (Q9BVS4 whole entry) above

OCI-Ly3 = assay: Antiproliferative activity against human OCILY3 cells incubated for 72 hrs by CCK8 assay; type: functional, cell-based; settings: OCI-Ly3, 72 h
[7] = Antiproliferative activity against human MRC5 cells incubated for 72 hrs by CCK8 assay; type: toxicity, cell-based
MOLT-4 = assay: Induction of cell cycle arrest in human MOLT-4 cells assessed as accumulation at G2/M phase incubated for 24 hrs by PI staining based flow cytometry; type: functional; settings: dose <= 900.0 nM
[8] = Half life in Sprague-Dawley rat at 10 mg/kg, ip measured for 24 hrs; type: ADME, organism-based; settings: in vivo
Mus musculus = assay: In vivo molecular glue degradation activity at RNF126/RIOK2 in SCID-CB17 mouse xenografted with human MOLT-4 cells assessed as induction of RIOK2 degradation in tumor at 10 mg/kg, ip for 18 days measured after 4 hrs post-last dose; type: functional, organism-based; settings: time 436.0 hrs

COc1ccc(-c2ccc3[nH]c(=O)c4nnn(-c5ccc(N6CCN(C(=O)/C=C/C(=O)c7ccc(F)cc7)CC6)c(C(F)(F)F)c5)c4c3c2)cn1
Emax [1]: 83.4% | Activity [2]: inactive | DC50 [3]: 550 nM | DC50 [4]: 450 nM | DC50 [5]: > 10000 nM | Emax [6]: 74.6% | IC50 (OCI-Ly3): 120 nM | IC50 at 72 h [7]: 1090 nM | Activity (MOLT-4): Dose-dependent-effect | half-life [8]: 8.1 h | Activity (Mus musculus): Active
